Data taken from patent publication US20150258107A1, “METHODS AND COMPOSITIONS FOR TREATING DEPRESSION” (DemeRx, Inc., priority 2014, published 2015).

Legend:
[1] = Pharmacokinetics of noribogaine in healthy male volunteers (plasma and urine, LCMSMS); conditions: for AUC0-216 / AUC0-∞ / Cmax / Tmax / t½: mean (SD)
[2] = tested on: Sprague-Dawley rat; assay: Single dose toxicity in rats; assay type: in vivo
Procedure: The objective of this study was to determine the toxicity and toxicokinetic profile of noribogaine HCl following a single oral (gavage) administration in the Sprague-Dawley rat. A single dose of 100, 300 and 800 mg/kg (achieved with doses of 400 mg/kg 3 h+/−30 min apart because of the limitations of maximum dose formulation concentration). Five male rats/group were used. […] Hypoactivity, vocalization, chewing movements, changes in respiration/posture, salivation, stimuli sensitivity, tremors, twitches and penile erection occurred prior to death. […] The NOAEL was determined to be 100 mg/kg.

[3] = Human pharmacokinetic study, single oral tablet, fasting healthy volunteers (serum levels); assay type: in vivo; conditions: 3, 10, 30 or 60 mg once orally, healthy volunteers
Procedure: In double blind studies, fasting healthy volunteers (6 per cohort) were treated once orally with a tablet of noribogaine HCl. In escalating cohorts, the volunteers received 3 mg, 10 mg, 30 mg or 60 mg noribogaine.

[4] = tested on: dogs; assay: Fourteen day repeat dose toxicity in dogs; assay type: in vivo, dog
Procedure: The objective of this study was to determine the toxicity profile of noribogaine HCl given following oral (gavage) administration to dogs for 14 days according to the following Table 3 below:
Noribogaine HCl was administered to groups of 4 male and 4 female dogs by single oral gavage daily for 14 days at doses of 0, 0.5, 1.0 and 5.0 mg/kg/day. An additional group of 4 male and 4 female dogs received either the vehicle control or 5.0 mg/kg/day for 14 days and were held for an additional 28 days after cessation of dosing to assess recovery from any potential drug-induced changes. The study was conducted under GLP guidelines and included comprehensive examinations of clinical signs, body weight, clinical pathology parameters, ophthalmologic examinations, ECG recordings and analyses of plasma for bioanalytical measurement of drug levels at appropriate intervals during the study. At the termination of the dosing phase and at the termination of the recovery phase, all dogs were subjected to a complete post-mortem examination including gross examination of major organs and histologic examination of an extensive list of tissues. Additional sections of brain were obtained from cerebrum, cerebellus, brain stem and spinal cord and examined histologically to evaluate potential effects on brain histopathology. In addition, these sections were examined with immunohistochemical stains for GFAP for evidence of gliosis and Calbindin for a more comprehensive examination of cerebellar Purkinje cells.

[5] = tested on: Sprague-Dawley rats; assay: Fourteen day repeat dose toxicity in rats; assay type: in vivo, rat
Procedure: This study was conducted to evaluate the toxicity profile of noribogaine-HCl following oral (gavage) administration to the rat for 14 days following Table 2 below:
Male and female Sprague-Dawley rats, 10/sex/group, were administered 0, 25, 50 or 100 mg/kg noribogaine HCl daily by single oral gavage for 14 days. An additional 5 rats/sex/group in the 0 (control) and 100 mg/kg groups were retained for a 28 day recovery period during which no drug was administered. Six rats/sex/group (3 rats/sex controls) were similarly dosed and sampled on study days 1 and 14 for analysis of noribogaine-HCl concentrations in the blood.

[6] = glucuronide in plasma after 30 mg noribogaine (n = 6)
[7] = glucuronide in plasma after 60 mg noribogaine (n = 6)
[8] = plasma, 30 mg and 60 mg dose groups

## CC[C@H]1C[C@@H]2C[C@H]3c4[nH]c5ccc(OC6OC(C(=O)O)C(O)C(O)C6O)cc5c4CCN(C2)[C@@H]13 (stereo partly shown) [Noribogaine glucuronide, noribogaine glucuronide]
[1]; both dose groups (30 mg, 60 mg)
  Proportion of Cmax and AUC relative to noribogaine: 3-4%
[1]; [6]
  AUC0-216: 25.7 (9.1) ng · hr/ml
  AUC0-∞: 25.8 (9.3) ng · hr/ml
  Cmax: 1.8 (0.6) ng/ml
  Tmax: 3.0 (0.6) hr
  t½: 20.6 (4.9) hr
[1]; [7]
  AUC0-216: 65.0 (21.5) ng · hr/ml
  AUC0-∞: 67.1 (21.9) ng · hr/ml
  Cmax: 4.1 (1.2) ng/ml
  Tmax: 3.8 (1.2) hr
  t½: 23.1 (3.0) hr
[1]; [8]
  Mean half-life: 21 to 23 h
  Time of peak concentrations after noribogaine dosing: 3 to 4 h
[1]; plasma, after 30 mg and 60 mg noribogaine
  Time by which detected in all subjects: ≤ 0.75 h

## CC[C@@H]1C[C@H]2CC3c4[nH]c5ccc(O)cc5c4CCN(C2)C31.Cl [noribogaine HCl]
[2]; 100 mg/kg
  Treatment related signs: did not show any treatment related signs
[2]; 300 mg/kg
  Rats with clinical signs (hypoactivity, vocalization, salivation, stimuli sensitivity, loss of limb function, lying on cage floor) persisting until Day 2: 3/5
[2]; 800 mg/kg (two doses of 400 mg/kg 3 h apart), oral gavage, 5 male rats
  Mortality: Mortality occurred in all male rats
[2]; 800 mg/kg group
  Time of mortality after administration of the second dose: 2 to 3 h
[2]; single oral gavage, male rats
  NOAEL: 100 mg/kg
[3]
  Clinically relevant adverse effects: no clinically relevant adverse effects were observed
[4]; 5 mg/kg/day
  Lacrimal gland changes (only target tissue): slight to moderate atrophy and degeneration of the acinar cells
[4]; 5 mg/kg/day recovery group
  Lacrimal gland change after 28 days recovery: clear evidence of regeneration
[4]; 0.5, 1.0, 5.0 mg/kg/day oral gavage 14 days, dosing or recovery phase
  Adverse effect in clinical observations, body weights, clinical pathology, ophthalmology, ECG, gross lesions: No evidence of adverse effect
[4]; 14 days oral gavage, based on lacrimal gland changes at 5 mg/kg/day
  NOAEL: 1 mg/kg/day
[5]; 100 mg/kg, females
  Body weight change: −2.6%
[5]; 100 mg/kg, males
  Body weight change: −5.5%
[5]; 100 mg/kg, males and females
  Food consumption change: −4.7%
[5]; 25, 50 or 100 mg/kg daily oral gavage, 14 days
  Test article-related effects on mortality, clinical signs, ophthalmoscopy, hematology, coagulation, clinical chemistry, urinalysis, gross necropsy, histopathology: no test article-related effects
[5]; 14 days oral gavage
  Brain sections stained for GFAP or Calbindin: No treatment-related differences
[5]; 14 days oral gavage, highest dose tested
  NOAEL: 100 mg/kg
[5]; mid- and high dose groups
  Liver weight: Minor increases in liver weight
